The source made the active and inactive calls. No cut-off for these calls is given here.
Key:
[1] = test system: RAW264.7; experiment: Inhibition of NO production in mouse RAW264.7 cells incubated for 24 hrs by Griess reagent based analysis; assay type: functional, cell-based; conditions: RAW264.7, 24 h
[2] = test system: Mycobacterium tuberculosis; experiment: Antitubercular activity against Mycobacterium tuberculosis H37Rv assessed as reduction in microbial growth after 5 days by MTT assay; assay type: functional; conditions: 120 h, time 5 day
[3] = Cytotoxicity against LPS-stimulated mouse RAW264.7 cells after 24 hrs by MTT assay; assay type: toxicity, cell-based; conditions: LPS-stimulated RAW264.7 cells
[4] = Selectivity index, ratio of CC50 for cytotoxicity against LPS-stimulated mouse RAW264.7 cells to MIC50 for antitubercular activity against Mycobacterium tuberculosis H37Rv; assay type: toxicity, cell-based; conditions: LPS-stimulated RAW264.7 cells, read-out: Selectivity Index
[5] = test system: RAW264.7; experiment: Anti-inflammatory activity against LPS-stimulated mouse RAW264.7 cells assessed as reduction in TNFalpha protein expression level at 12.5 uM after 24 hrs by ELISA; assay type: functional, cell-based
[6] = Selectivity index, ratio of CC50 for cytotoxicity against LPS-stimulated mouse RAW264.7 cells to MIC50 for antitubercular activity against Mycobacterium tuberculosis M299; assay type: toxicity, cell-based; conditions: LPS-stimulated RAW264.7 cells, read-out: Selectivity Index
[7] = test system: RAW264.7; experiment: Anti-inflammatory activity against LPS-stimulated mouse RAW264.7 cells assessed as reduction in IL1beta protein expression level after 24 hrs by ELISA; assay type: functional, cell-based; conditions: RAW264.7, 24 h
[8] = test system: RAW264.7; experiment: Anti-inflammatory activity against LPS-stimulated mouse RAW264.7 cells assessed as reduction in iNOS protein expression level at 100 uM after 24 hrs by immunoblot analysis relative to control; assay type: functional
[9] = test system: Mycobacterium tuberculosis; experiment: Antitubercular activity against Mycobacterium tuberculosis M299 infected in mouse RAW264.7 cells assessed as reduction in intracellular microbial growth after 4 days followed by cell lysis and measured after 21 days; assay type: functional; conditions: M299, 96 h, time 4 day
[10] = test system: Mycobacterium tuberculosis; experiment: Antitubercular activity against Mycobacterium tuberculosis M299 assessed as reduction in microbial growth after 5 days by MTT assay; assay type: functional, organism-based; conditions: M299, 120 h
[11] = test system: RAW264.7; experiment: Anti-inflammatory activity against LPS-stimulated mouse RAW264.7 cells assessed as reduction in TNFalpha protein expression level after 24 hrs by ELISA; assay type: functional, cell-based; conditions: RAW264.7, 24 h
[12] = test system: Mycobacterium tuberculosis; experiment: Antitubercular activity against Mycobacterium tuberculosis H37Rv infected in mouse RAW264.7 cells assessed as reduction in microbial growth after 4 days followed by cell lysis and measured after 21 days; assay type: functional; conditions: 96 h, time 4 day
[13] = test system: RAW264.7; experiment: Anti-inflammatory activity against LPS-stimulated mouse RAW264.7 cells assessed as reduction in iNOS protein expression level at 50 uM after 24 hrs by immunoblot analysis; assay type: functional, cell-based

O=C(C1CCCO1)N1CCN(C(=S)NCc2ccccc2)CC1 (centres undefined)
IC50 [1]: ≥ 200 µM | MIC50 [2]: 24.9 µM | CC50 at 24 h [3]: ≥ 200 µM | selectivity ratio [4]: > 8

Oc1cccc(NC(=S)NCc2ccccc2)c1
IC50 [1]: 200 µM | MIC50 [2]: 77.2 µM | CC50 at 24 h [3]: ≥ 200 µM | selectivity ratio [4]: > 2.6

S=C(NCCc1ccccc1)N1CCN(c2nc3ccccc3[nH]2)CC1
IC50 [1]: ≥ 200 µM | MIC50 [2]: 20 µM | CC50 at 24 h [3]: 33.7 µM | selectivity ratio [4]: 1.7

S=C(NCc1ccccc1)Nc1ccc2c(c1)OCO2
IC50 [1]: 24.8 µM | MIC50 [2]: 132 µM | CC50 at 24 h [3]: ≥ 200 µM | selectivity ratio [4]: > 1.5

COc1cc(NC(=S)Nc2ccccc2)cc(OC)c1OC
IC50 [1]: 15.2 µM | MIC50 [2]: 28.9 µM | CC50 at 24 h [3]: 154 µM | selectivity ratio [4]: 5.3

S=C(NCc1ccccc1)Nc1ccccn1
IC50 [1]: ≥ 200 µM | MIC50 [2]: 17.7 µM | CC50 at 24 h [3]: ≥ 200 µM | selectivity ratio [4]: > 1.1

COc1ccc(NC(=S)NCc2ccccc2)cc1
IC50 [1]: ≥ 200 µM | MIC50 [2]: 7.9 µM | CC50 at 24 h [3]: 105 µM | selectivity ratio [4]: 133

CCCCNC(=S)NCc1ccccc1
IC50 [1]: 143 µM | MIC50 [2]: 160 µM | CC50 at 24 h [3]: 177 µM | selectivity ratio [4]: 1.1

COc1cc(NC(=S)NCCc2ccccc2)cc(OC)c1OC
IC50 [1]: 4.1 µM | inhibition [5]: Active | MIC50 [2]: 8.6 µM | selectivity ratio [6]: ≥ 8.1 | IC50 [7]: 80.2 µM | CC50 at 24 h [3]: ≥ 200 µM | inhibition at 100 µM [8]: ≤ 100% | MIC50 [9]: 12.9 µM | IC50 [10]: 24.8 µM | IC50 [11]: 15.3 µM | MIC50 [12]: 7.7 µM | selectivity ratio [4]: > 25

S=C(Nc1ccccc1)N1CCN(c2ccccc2Cl)CC1
IC50 [1]: ≥ 200 µM | MIC50 [2]: 37.3 µM | CC50 at 24 h [3]: 30.5 µM | selectivity ratio [4]: 0.8

S=C(Nc1ccccc1)Nc1ccccn1
IC50 [1]: 182 µM | MIC50 [2]: 16.4 µM | CC50 at 24 h [3]: ≥ 200 µM | selectivity ratio [4]: > 12.2

S=C(NCCc1ccccc1)N1CCN(c2ncccn2)CC1
IC50 [1]: ≥ 200 µM | MIC50 [2]: 34.9 µM | CC50 at 24 h [3]: 40.6 µM | selectivity ratio [4]: 1.2

O=C(O)c1ccc(NC(=S)NCc2ccccc2)cc1O
IC50 [1]: 8.1 µM | inhibition [5]: Active | MIC50 [2]: 5.9 µM | selectivity ratio [6]: 8 | IC50 [7]: 47.9 µM | CC50 at 24 h [3]: 197 µM | inhibition at 100 µM [8]: ≤ 100% | MIC50 [9]: 24.7 µM | IC50 [10]: 24.7 µM | IC50 [11]: 28.4 µM | MIC50 [12]: 10.9 µM | selectivity ratio [4]: 33.3

CC(C)c1ccc(NC(=S)NCc2ccccc2)cc1
IC50 [1]: 2.4 µM | inhibition [13]: Active | inhibition [5]: Active | MIC50 [2]: 2.3 µM | selectivity ratio [6]: 15.5 | IC50 [7]: 55.7 µM | CC50 at 24 h [3]: 121 µM | inhibition at 100 µM [8]: ≤ 100% | MIC50 [9]: 5.6 µM | IC50 [10]: 7.8 µM | IC50 [11]: 4 µM | MIC50 [12]: 1.7 µM | selectivity ratio [4]: 52.5

O=C(C1CCCO1)N1CCN(C(=S)Nc2ccccc2)CC1 (centres undefined)
IC50 [1]: 187 µM | MIC50 [2]: 23.3 µM | CC50 at 24 h [3]: ≥ 200 µM | selectivity ratio [4]: > 8.6

CCN(CC)C(=S)NCc1ccccc1
IC50 [1]: 15.7 µM | MIC50 [2]: 40.2 µM | CC50 at 24 h [3]: ≥ 200 µM | selectivity ratio [4]: > 4.9

S=C(NCc1ccccc1)N1CCN(c2ncccn2)CC1
IC50 [1]: ≥ 200 µM | MIC50 [2]: 17.8 µM | CC50 at 24 h [3]: 50.9 µM | selectivity ratio [4]: 2.9

S=C(NCc1ccccc1)N1CCN(c2ccccc2)CC1
IC50 [1]: 4.1 µM | MIC50 [2]: 27.9 µM | CC50 at 24 h [3]: 54.3 µM | selectivity ratio [4]: 1.9

S=C(Nc1ccccc1)N1CCN(c2ccccn2)CC1
IC50 [1]: ≥ 200 µM | MIC50 [2]: 9.5 µM | CC50 at 24 h [3]: ≥ 200 µM | selectivity ratio [4]: > 21.1

COc1cc(NC(=S)NC#N)cc(OC)c1OC
IC50 [1]: 3.9 µM | MIC50 [2]: 184 µM | CC50 at 24 h [3]: ≥ 200 µM | selectivity ratio [4]: > 1.1

COc1ccc(CN2CCN(C(=S)Nc3ccccc3)CC2)c(OC)c1OC
IC50 [1]: ≥ 200 µM | MIC50 [2]: 16 µM | CC50 at 24 h [3]: 34.9 µM | selectivity ratio [4]: 2.2

CC(C)NC(=S)NCc1ccccc1
IC50 [1]: ≥ 200 µM | MIC50 [2]: 57.8 µM | CC50 at 24 h [3]: ≥ 200 µM | selectivity ratio [4]: > 3.5

CO[C@H]1/C=C/O[C@@]2(C)Oc3c(C)c(O)c4c(O)c(c(/C=N/N5CCN(C)CC5)c(O)c4c3C2=O)NC(=O)/C(C)=C\C=C\[C@H](C)[C@H](O)[C@@H](C)[C@@H](O)[C@@H](C)[C@H](OC(C)=O)[C@@H]1C [RIFAMPIN]
MIC50 [2]: 0.2 µM | IC50 [10]: 1.2 µM

CN(C[C@H](O)[C@@H](O)[C@H](O)[C@H](O)CO)C(=S)NCc1ccccc1
IC50 [1]: ≥ 200 µM | MIC50 [2]: 134 µM | CC50 at 24 h [3]: 104 µM | selectivity ratio [4]: 0.8

Reference: ChEMBL document CHEMBL5143547, “Antimycobacterial and anti-inflammatory activities of thiourea derivatives focusing on treatment approaches for severe pulmonary tuberculosis” (Bioorg Med Chem, 2022)
